Assay results published in patent publication US10508130B2, “Crystalline polymorph of 15B-hydroxy-osaterone acetate” (ASKA Pharmaceutical Co., Ltd., priority 2016, dated 2019).

Columns and labels:
[1] = Thermal stability test (storage at 100° C., purity by HPLC); assay type: physicochemical; conditions: in air; for colour of crystal with the passage of time / colour of crystal on the seventh day after storage: 100° C.; for colour of crystal with the passage of time: after seventh day up to 28 days
Method: The crystalline polymorphic form A obtained in Example 1 and the crystalline polymorphic form B obtained in Comparative Example 1 were each stored at a temperature of 100° C. for 28 days (storage condition: in a thermostatic bath, in air). During the storage, the crystals were sampled every predetermined time, and the purity of 15β-hydroxy-osaterone acetate in each sample was measured by HPLC.

[2] = Friction or pulverization stability (automatic mortar grinder, PXRD); assay type: physicochemical; conditions: 50 mg pulverized one hour, pestle 124 g, 50 rpm; PXRD peak height ratio
Method: In an automatic mortar grinder (weight of pestle: 124 g, 50 rpm), 50 mg of a sample (the crystalline polymorphic form A or the crystalline polymorphic form B) was put, the sample was pulverized over one hour and sampled. A PXRD analysis of the sample was conducted to determine the change of a degree of crystallization. The degree of crystallization after one hour of the crystalline polymorphic form A was 46.8%, and that of the crystalline polymorphic form B was 22.2%. Thus, the crystalline polymorphic form A was stable to pulverization. Incidentally, the degree of crystallization was determined based on an intensity ratio (peak height) of a characteristic diffraction peak in the PXRD spectrum (for the crystalline polymorphic form A, a diffraction peak at 2θ=17.1°; for the crystalline polymorphic form B, a diffraction peak at 2θ=16.2°), and the change rate of crystallization degree was calculated.

[3] = Angle of repose (powder flow property); assay type: physicochemical; conditions: for Angle of repose (°) Average: average of three measurements; for Degree of flow property: evaluated based on Japanese Pharmacopoeia, General Information (Powder Flow); for Angle of repose (°) First time: first measurement; for Angle of repose (°) Second time: second measurement; for Angle of repose (°) Third time: third measurement
Method: Probably due to being the prism crystal, the crystalline polymorphic form A of 15β-hydroxy-osaterone acetate is characterized by a high powder flow property and a small angle of repose. For example, the powdery crystalline polymorphic form A of 15β-hydroxy-osaterone acetate has an average angle of repose of, for example, about 30 to 38°, preferably about 32 to 37° (e.g., about 33 to 37°), and more preferably about 34 to 36°, when the angle of repose is measured three times in accordance with methods for angle of repose described in The Japanese Pharmacopoeia. Incidentally, the crystalline polymorphic form B of 15β-hydroxy-osaterone acetate has an average angle of repose of, for example, about 42 to 52° (e.g., about 44 to 50°, particularly about 45 to 47°) by the same measurement as above. The angle of repose can be evaluated as the following manner. A funnel (a glass funnel having a funnel diameter of 50 mm, a stem internal diameter of 7 mm, and a stem length of 40 mm) is provided, the height from the lower end of the funnel to a base surface (an upper surface of a cylinder having a diameter of 1.5 cm) is fixed to 4.5 cm, an excess amount of a powdery sample is dropped onto the center of the cylinder surface (the base surface) through the funnel, and an incident angle of the resulting accumulated powder is measured.
The height from a lower end of a funnel to a base surface (an upper surface of a cylinder having a diameter of 1.5 cm) was fixed to 4.5 cm, an excess amount of a powdery sample was dropped onto the center of the cylinder surface (the base surface) through the funnel. An incident angle (an angle of repose) of the resulting accumulated powder was measured. This operation was repeated three times, and the average value of the angle of repose was calculated.
In Table 1, the degree of flow property is evaluated based on Japanese Pharmacopoeia, General Information (G2 Solid-state Properties, Powder Flow), which is described about the relationship between the angle of repose and the flow property.

[4] = Stability (stir-suspension) in mixed solvents; assay type: physicochemical; conditions: for proportion maintaining crystal structure: stirred; for stability of crystal form to the solvents commonly used in production of preparations: acetone/heptane, acetone/water, ethanol/water mixed solvents
Method: To (1) an acetone/heptane mixed solvent (1:1), (2) an acetone/water mixed solvent (1:1), or (3) an ethanol/water mixed solvent (1:1) was added the crystalline polymorphic form A, and the mixture was stirred. One day after, the crystalline polymorphic form A maintained a crystal structure thereof at a proportion of 98% in the mixed solvent (1), 99% in the mixed solvent (2), and 100% in the mixed solvent (3). Three days after, the crystalline polymorphic form A maintained a crystal structure thereof at a proportion of 95% in the mixed solvent (1), 98% in the mixed solvent (2), and 99% in the mixed solvent (3). Even seven days after, the crystalline polymorphic form A maintained a crystal structure thereof at a proportion of 95% in the mixed solvent (1), 98% in the mixed solvent (2), and 99% in the mixed solvent (3).

[5] = Pharmacokinetics in dog (oral capsule, plasma LC-MS/MS); assay type: in vivo; conditions: female dogs, 0.3 mg/kg oral, gelatin capsule with lactose hydrate, plasma 15β-hydroxy-osaterone acetate
Method: For each sample of the crystalline polymorphic form A obtained in Example 1 and the crystalline polymorphic form B obtained in Comparative Example 1, the sample was mixed at a dose of 0.3 mg/kg with 100 mg of lactose hydrate (manufactured by DFE Pharma), and the mixture was filled with a gelatin capsule (manufactured by Matsuya Corporation, MM, size: No. 2) to prepare a capsule preparation. The capsule preparation containing the crystalline polymorphic form A was orally administered to a first female dog group (5 dogs), and the capsule preparation containing the crystalline polymorphic form B was orally administered to a second female dog group (5 dogs). The blood was sampled from each dog 0.5, 1, 2, 3, 4, 5, 7, 10, 24, 48, and 72 hours after oral administration, and the blood plasma from each sample was obtained by centrifugation. The concentration of 15β-hydroxy-osaterone acetate in each blood plasma was measured by an LC-MS/MS (liquid chromatography-tandem mass spectrometry) method, and a time to reach a maximum plasma concentration (Tmax) and a maximum plasma concentration (Cmax) were calculated.

| Structure (SMILES) | colour of crystal with the passage of time [1] | colour of crystal on the seventh day after storage [1] | degree of crystallization after one hour [2] [%] | Angle of repose (°) Average [3] [°] | Degree of flow property [3] | Angle of repose (°) First time [3] [°] | Angle of repose (°) Second time [3] [°] | Angle of repose (°) Third time [3] [°] | stability of crystal form to the solvents commonly used in production of preparations [4] | Tmax (time to reach a maximum plasma concentration) [5] [h] | further results |
| --- | --- | --- | --- | --- | --- | --- | --- | --- | --- | --- | --- |
| CC(=O)O[C@]1(C(C)=O)C[C@@H](O)[C@H]2[C@@H]3C=C(Cl)C4=CC(=O)OC[C@]4(C)[C@H]3CC[C@@]21C [Crystalline polymorphic form A, 17α-acetoxy-6-chloro-15β-hydroxy-2-oxapregna-4,6-diene-3,20-dione] | maintained light brown | light brown | 46.8 | 35 | Good | 36 | 33 | 38 | highly stable | 13.8 ± 8.33 | thermal stability (active ingredient content / purity of 15β-hydroxy-osaterone acetate by HPLC) ([1]; stored at 100° C. for 28 days, thermostatic bath, FIG. 5): only a few decreases in active ingredient content; proportion maintaining crystal structure ([4]; acetone/heptane mixed solvent (1:1), one day after): 98%; proportion maintaining crystal structure ([4]; acetone/heptane mixed solvent (1:1), seven days after): 95%; proportion maintaining crystal structure ([4]; acetone/heptane mixed solvent (1:1), three days after): 95%; proportion maintaining crystal structure ([4]; acetone/water mixed solvent (1:1), one day after): 99%; proportion maintaining crystal structure ([4]; acetone/water mixed solvent (1:1), seven days after): 98%; proportion maintaining crystal structure ([4]; acetone/water mixed solvent (1:1), three days after): 98%; proportion maintaining crystal structure ([4]; ethanol/water mixed solvent (1:1), one day after): 100%; proportion maintaining crystal structure ([4]; ethanol/water mixed solvent (1:1), seven days after): 99%; proportion maintaining crystal structure ([4]; ethanol/water mixed solvent (1:1), three days after): 99%; Cmax (maximum plasma concentration) [5]: 84.2 ± 29.06 ng/mL |
| CC(=O)O[C@]1(C(C)=O)C[C@@H](O)[C@H]2[C@@H]3C=C(Cl)C4=CC(=O)OC[C@]4(C)[C@H]3CC[C@@]21C [Crystalline polymorphic form B, 17α-acetoxy-6-chloro-15β-hydroxy-2-oxapregna-4,6-diene-3,20-dione, reference compound] | turned brown | light brown | 22.2 | 46 | Poor | 51 | 39 | 48 | unstable | 5.8 ± 1.60 | Cmax ([5]; female, dog, plasma, po, 0.3 mg/kg, read-out: Cmax (maximum plasma concentration)): 128 ± 19.2 ng/mL |
